Assays:
MTAN-D198N = MTAN-D198N (Helicobacter pylori, UniProt Q9ZMY2, D198N); settings: for affinity to MTAN-D198N / displacement of AdoHcy-TAMRA: displacement curves, FIG. 10B
[1] = target: T1, calf intestinal alkaline phosphatase (CIAP) (Bos taurus, UniProt P19111); assay: biochemical
Description: (§1) Calf Intestinal Alkaline Phosphatase (CIAP) was obtained from New England Biolabs. […] Reactions were initiated by adding ATP at varying concentrations ranging from 0.1 to 20 μM. Due to the ability of ATP to act as an inhibitor of CIAP at high concentrations, steady-state analysis of the resulting data was fitted to a substrate-inhibition equation in Equation 8, below, using Prism 7.

[2] = target: T1, calf intestinal alkaline phosphatase (CIAP); settings: read-out: Km of ATP for CIAP; competitive FP assay, 0.25 U/mL CIAP
Description: as §1

CIAP = CIAP (Bos taurus, UniProt P19111); settings: molybdenum blue-based assay, previous work, cited from earlier work
Chain of CIAP (P19111 20-506): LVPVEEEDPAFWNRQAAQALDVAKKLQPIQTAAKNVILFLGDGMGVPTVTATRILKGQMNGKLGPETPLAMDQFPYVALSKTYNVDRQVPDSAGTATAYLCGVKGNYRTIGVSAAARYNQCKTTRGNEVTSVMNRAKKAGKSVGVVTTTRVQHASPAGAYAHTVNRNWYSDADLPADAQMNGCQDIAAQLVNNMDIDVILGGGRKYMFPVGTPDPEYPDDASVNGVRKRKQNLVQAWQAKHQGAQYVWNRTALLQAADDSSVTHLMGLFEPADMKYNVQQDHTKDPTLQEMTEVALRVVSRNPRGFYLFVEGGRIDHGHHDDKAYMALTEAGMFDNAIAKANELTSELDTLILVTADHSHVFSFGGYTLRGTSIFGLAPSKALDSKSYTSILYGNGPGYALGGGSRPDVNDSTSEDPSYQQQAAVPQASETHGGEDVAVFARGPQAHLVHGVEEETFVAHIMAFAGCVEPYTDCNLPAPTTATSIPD

HpMTAN = HpMTAN (Helicobacter pylori, UniProt Q9ZMY2); settings: previously characterized; cited from earlier work
Chain of HpMTAN (Q9ZMY2 whole entry): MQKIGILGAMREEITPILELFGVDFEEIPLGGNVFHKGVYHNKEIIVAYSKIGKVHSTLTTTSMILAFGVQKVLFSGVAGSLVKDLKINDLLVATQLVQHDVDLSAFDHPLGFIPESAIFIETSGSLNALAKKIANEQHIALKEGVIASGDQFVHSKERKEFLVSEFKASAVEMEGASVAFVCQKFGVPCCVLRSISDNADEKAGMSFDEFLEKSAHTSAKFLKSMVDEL

[3] = target: Mycobacterium smegmatis EgtD (Mycolicibacterium smegmatis, UniProt A0R5M8); settings: isothermal calorimetry, previously determined; cited from earlier work
Chain of Mycobacterium smegmatis EgtD (A0R5M8 whole entry): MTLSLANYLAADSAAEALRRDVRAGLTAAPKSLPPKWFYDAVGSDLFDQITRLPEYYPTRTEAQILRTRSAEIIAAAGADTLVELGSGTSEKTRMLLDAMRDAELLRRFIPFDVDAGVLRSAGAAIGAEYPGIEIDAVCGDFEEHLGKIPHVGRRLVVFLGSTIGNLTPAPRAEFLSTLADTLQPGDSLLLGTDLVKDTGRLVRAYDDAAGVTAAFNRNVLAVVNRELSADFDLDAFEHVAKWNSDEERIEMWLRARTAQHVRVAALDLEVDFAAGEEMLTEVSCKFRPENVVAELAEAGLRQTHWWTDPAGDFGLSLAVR

[4] = system: N[C@@H](Cc1c[nH]cn1)C(=O)O; assay: purified protein, by the assay type; settings: pH 8.0; 25.0 °C

Chain of MTAN-D198N (Q9ZMY2 whole entry D198N): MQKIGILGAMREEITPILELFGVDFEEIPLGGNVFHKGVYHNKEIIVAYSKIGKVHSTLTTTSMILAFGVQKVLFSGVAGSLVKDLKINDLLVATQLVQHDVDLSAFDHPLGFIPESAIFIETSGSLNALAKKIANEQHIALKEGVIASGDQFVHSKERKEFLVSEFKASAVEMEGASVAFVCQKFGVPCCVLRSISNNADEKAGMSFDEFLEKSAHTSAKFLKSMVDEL
T1 sequence (P19111 20-506): as the sequence (P19111 20-506) above

With `Nc1ncnc2c1ncn2[C@@H]1O[C@H](COP(=O)(O)OP(=O)(O)O)[C@@H](O)[C@H]1O` [ADP, adenosine diphosphate] the “affinity to MTAN-D198N / displacement of AdoHcy-TAMRA” value (“affinity to MTAN-D198N / displacement” for short) (MTAN-D198N) was “M affinity”.

For `Nc1ncnc2c1ncn2[C@@H]1O[C@H](COP(=O)(O)O)[C@@H](O)[C@H]1O` [AMP, adenosine monophosphate], the “affinity to MTAN-D198N / displacement” value (MTAN-D198N) was “M affinity”.

With `Nc1ncnc2c1ncn2[C@@H]1O[C@H](COP(=O)(O)OP(=O)(O)OP(=O)(O)O)[C@@H](O)[C@H]1O` [ATP, adenosine triphosphate] the “affinity to MTAN-D198N / displacement” value (MTAN-D198N) was “unable to displace AdoHcy-TAMRA”, the Ki [1] was 7.6 ± 1.8 µM and the Km [2] was 0.9 ± 0.2 µM. The Ki (CIAP; read-out: Ki for substrate inhibition of ATP (CIAP)) was 19 µM and the Km (CIAP; read-out: Km of ATP for CIAP) was 20.5 µM.

In the case of `Nc1ncnc2c1ncn2[C@@H]1O[C@H](CSCC[C@H](N)C(=O)O)[C@@H](O)[C@H]1O` [AdoHcy, S-adenosylhomocysteine], the “affinity with HpMTAN” value (HpMTAN) is given as “low p M affinity” and the “limit of detection, amount” value (MTAN-D198N; 50 μL reactions) is given as “about 0.3 pmol”.

In the case of `C[S+](CC[C@H](N)C(=O)O)C[C@H]1O[C@@H](n2cnc3c(N)ncnc32)[C@H](O)[C@@H]1O` (stereo partly drawn) [AdoMet, S-adenosyl methionine], the Kd [3] is given as 270 ± 20 µM.

In the case of `N[C@@H](Cc1c[nH]cn1)C(=O)O` [L-histidine], the Kd [3] is given as 290 ± 14 µM.

In the case of “EgtD (Mycobacterium tuberculosis CDC1551)”, the Km [4] is reported as 330 ± 35 µM.

Source: patent publication US12018299B2, “Methods and kits for quantifying adenosine-containing molecules” (priority 2017, dated 2024)
